Results: patent US6387910B1, “Drug of improving optic nerve head circulation disorder” (Akzo Nobel N.V., priority 1998, dated 2002)

What was measured:
[1] = test system: blood flow in the optic nerve head; conditions: literature: Nichi-Gan Kaishi Vol. 100, No. 12, p. 923, 1996; cited from earlier work
[2] = test system: blood flow in the optic nerve head; test: Blood flow in the optic nerve head by laser speckle technique (rate of change of NB value); assay type: in vivo; conditions: rabbit, i.v.
Protocol: The optic nerve head circulation improving activity was measured by using as an index the rate of change of NB value as mentioned hereinafter.
1) Measurement of Blood Flow in the Optic Nerve Head by Laser Speckle Technique
(§1) Male New Zealand White rabbits (weighing 2.3-3.1 kg) were housed in an OSHIDA-type solid box and the left auricula was locally anesthetized with Xylocaine Spray (trademark, manufactured by Fujisawa Pharmaceutical) and Xylocaine Jelly (trademark, manufactured by Fujisawa Pharmaceutical), and a catheter (Polyethylene Tube SP28, manufactured by Natsume) were inserted into the post auricular artery for measuring the blood pressure and the heart rate, and the blood pressure and the heart rate were continuously recorded with a recorder (WT-645G, manufactured by Nihon-Koden). Under the local anesthesia, a catheter for administering the test drug (Polyethylene Tube SP31, manufactured by Natsume) was likewise inserted into the right post auricular vein of the animal.
The blood flow of the optic nerve head was measured by selecting a portion having no surface blood vessel at the right optic nerve head [0.42×0.42 mm (field angle 30°) with an eyegrounds circulation analyzer (Laser speckle circulation analyzer-II: LSCA-II), measuring the mean value of the quantitative index of blurring in whole field (100×100) [NB value (normalized blur value)], and calculating the rate of change (%) of the NB value by the following equation: [formula]
By the way, the test drug was prepared by adding a 20% dimethylacetamide solution containing 2% tartaric acid to a drug to be tested so as to adjust the ad ministration volume thereof to 0.1 ml/kg and dissolving the mixture by adding thereto a hot water.
The change of the value between the data after administration of drug or vehicle and the data before the administration of drug or vehicle was determined, and for each item, the mean values and standard deviation in six animals in each test were determined, and the results are shown in the accompanying FIG. 1 to FIG. 8. […]

intraocular pressure = test: Measurement of intraocular pressure in rabbits (pneumatonometer); assay type: in vivo; conditions: rabbit; 0.003, 0.01 and 0.03 mg/kg, i.v.
Protocol: 2) Measurement of Intraocular Pressure The intraocular pressure was measured on the left eye at each time when the above NB values were measured after the administration of drug or vehicle (excepting 5 minutes after administration, the intraocular pressure was not measured) after dropping a 0.4% solution of Benoxil (trademark, manufactured by Santen Pharmaceutical) by using a calibrated pneumatonometer (Alcon Application Pneumatonograph, manufactured by Nippon Alcon). The change of the value between the data after administration of drug or vehicle and the data before the administration of drug or vehicle was determined, and for each item, the mean values and standard deviation in six animals in each test were determined, and the results are shown in the accompanying FIG. 1 to FIG. 8. The significant test of the test drug was done by t-test at each time of measurement compared to the data in the control group administered with vehicle. The significant standards are indicated separately in the group of less than 5% and the group of less than 1%.

[3] = test system: blood pressure and heart rate; test: Mean blood pressure and heart rate in rabbits (post auricular artery catheter); assay type: in vivo; conditions: rabbit
Excerpt: as §1
The change of the value between the data after administration of drug or vehicle and the data before the administration of drug or vehicle was determined, and for each item, the mean values and standard deviation in six animals in each test were determined, and the results are shown in the accompanying FIG. 1 to FIG. 8. The significant test of the test drug was done by t-test at each time of measurement compared to the data in the control group administered with vehicle. The significant standards are indicated separately in the group of less than 5% and the group of less than 1%.

[4] = Measurement of plasma concentration of drug in rabbit (gas chromatography); assay type: in vivo; conditions: Lomerizine hydrochloride 0.03 mg/kg, i.v.
Protocol: Under the same conditions as in the above Example 1, the plasma concentration of Lomerizine in the groups administered with Lomerizine hydrochloride (0.03 mg/kg, i.v.) 5, 15, 30 and 60 minutes after the administration of the drug as follows.
Male New Zealand White rabbits (weighing 2.5-3.5 kg, 3 animals per group) were placed in an OSHIDA-type solid box. A solution of Lomerizine hydrochloride (in an amount so as to be 0.03 mg/kg) in a 20% dimethylacetamide containing 2% tartaric acid was prepared and was administered to the right post auricular vein of the animals. Thereafter, blood sampling was done from left post auricular vein 5, 15, 30 and 60 minutes after the administration of test drug. The collected blood sample was centrifuged (4° C., 3000 rpm×10 minutes) to obtain a plasma sample, and then the amount of Lomerizine in the plasma was measured by gas chromatography.
The gas chromatography was carried out under the following conditions:
GC-14B type gas chromatograph (manufactured by Shimadzu Corporation)
FTD Detector (Shimadzu FTD-8, manufactured by Shimadzu Corporation)
Conditions for Measurement:
Column: Shimadzu CBP1-M25-025 (25m×0.2mm, thickness of membrane: 0.25 μm)
Injection port temperature: 310° C.
Column temperature: 285° C.
Detector temperature: 310° C.
Carrier gas: Helium (2.30 kg/m^2)
Make up gas: Helium (flow rate: 40 ml/minute)
H2 flow rate: 3.8 ml/minute
Air flow rate: 160 ml/minute

[5] = test system: side effects (objective and subjective symptoms); test: Side effect-manifestation in aged and younger persons; assay type: in vivo; conditions: human
[6] = 0.03 mg/kg, i.v., 15 minutes after the administration

Molecule | action on the optic nerve head (blood flow) [1] | increasing activity of blood flow in the optic nerve head (rate of change of NB value) vs vehicle ([2]; 0.03 mg/kg, 30 minutes after the administration) | increasing activity of blood flow in the optic nerve head (rate of change of NB value) vs vehicle ([2]; 0.003, 0.01 and 0.03 mg/kg, significant 5 minutes after the administration) | increasing activity of blood flow in the optic nerve head (rate of change of NB value) vs vehicle ([2]; 0.003 and 0.03 mg/kg, 15 minutes after the administration) | action on the intraocular pressure (intraocular pressure) | heart rate vs vehicle [3, 6] | hypotensive activity (mean blood pressure) vs vehicle [3, 6] | hypotensive activity (mean blood pressure) vs vehicle ([3]; 0.01 and 0.03 mg/kg, i.v., 5 minutes after the administration) | heart rate vs vehicle ([3]; 0.01 and 0.03 mg/kg, i.v., 30 minutes after the administration) | heart rate vs vehicle ([3]; all groups (0.003, 0.01 and 0.03 mg/kg, i.v.), 5 minutes after the administration) | Concentration of Lomerizine in Plasma, Mean ± Standard deviation ([4]; 5 minutes after administration) [ng/mL] | Concentration of Lomerizine in Plasma, Mean ± Standard deviation ([4]; 15 minutes after administration) [ng/mL] | Concentration of Lomerizine in Plasma, Mean ± Standard deviation ([4]; 30 minutes after administration) [ng/mL] | side effect-manifestation in aged persons (65-85 years old) compared with younger persons (15-64 years old) [5]
COC(=O)C1=C(C#N)NC(C)=C(C(=O)OC(C)C)C1c1cccc([N+](=O)[O-])c1 (centres unmarked) [Nilvadipine] | an activity of increasing blood flow | significant increasing activity | higher increasing activity | significant increasing activity | no clear action | significant increase | significant hypotensive activity | significant hypotensive activity | significant increase | significant increase |  |  |  | 
Lomerizine |  |  |  |  |  |  |  |  |  |  | 19.8 ± 6.5 | 8.1 ± 2.4 | 4.9 ± 2.4 | not so different
